Where “and” joins values, the source holds several entries; their conditions need not be identical. Equal values may be shown once. Entries after “also recorded” stand apart in the source; their conditions may differ.
Experiments:
C. elegans AChE = test: Determination of IC50 of compounds to AChE (Ellman method, nematode homogenate); type: biochemical; conditions: 2-h incubation at 37°C, mean ± SD, triplicates, read-out: IC50 of AChE inhibition
Description: Third-instar juvenile stage samples of C. elegans were thoroughly ground using a glass homogenizer. The homogenate was then dissolved in PBS (pH 7.0, which contained 0.1% Triton X-100) using a suitable volume, followed by a 30-min centrifugation at 6000 r/min under 4°C to harvest supernatants to analyze the enzymes ([Ellman et al., 1961]; [Zhao et al., 2018]) [Nematode (3rd instar): 4000 individuals/mL].
After dissolving the eight compounds and chlorpyrifos in acetone, multiple dilutions were made to obtain test concentrations at 5 levels. Thereafter, the test solution of every level (4 µL) was blended with the enzyme solution (96 µL), followed by 2-h incubation at 37°C in a 96-well plate. The final concentrations of compounds were 29.25, 58.50, 117.00, 234.00, and 468.00 µg/mL, respectively. Thereafter, 1.5 mM acetylthiocholine iodide (ATCHI) (50 µL) was added for a further 0.5-h incubation at 37°C. The reaction was finally terminated by adding 0.3 mM 5,5′- dithiobis (2 - nitrobenzoic acid) (DTNB) (50 µL). Afterward, the residual activity of acetylcholinesterase was measured with a microplate reader at 405 nm. Corresponding treatments were then applied to different groups as given below:
The inhibition rate (%) was calculated follows:
I%=[1−(Treatment group−Compound control group)/(Substrate control group−PBS control group)]×100%

C. elegans = test: Toxic effects of compounds on C. elegans (lethality); type: in vivo; conditions: Caenorhabditis elegans, 48 h, mean ± SD, read-out: Lethality rate (%); for mortality at 500 µg/mL: compound 0.5 mg/mL
Description: In the toxicity analysis, 95 µL of the nematode solution (containing approximately 80 C. elegans) along with 5 µL of each compound was added to a 96-well plate. The final concentration of each compound was 0.5 mg/mL, and chlorpyrifos (20 µg/mL) was used as the positive control. The samples were mixed sufficiently, followed by 48-h incubation of plates under RT, and subsequently, the dead nematodes were counted to determine the lethality rate ([Roh and Choi, 2008]).

nematode AChE = test: Kinetic study on the inhibitory effect of AChE by compound (Lineweaver-Burk and Dixon plots); type: biochemical, C. elegans
Description: This study prepared the enzyme solution at multiple gradients (0.125, 0.25, 0.5, and 1.0 U/mL). After adding compound 5 (29.25, 58.50, 117.00, 234.00, and 468.00 µg/mL), the mixed sample was then subjected to a 1-h incubation on a 96-well plate at 37°C (the buffer was used as a substitute for the control group). Later, 1.5 mM ATCHI (50 µL) was added and incubated for a 30-min period, followed by an addition of the 0.3 mM DTNB (50 µL). After 30 s, a microplate reader was utilized to record the OD value at 405 nm (five times at 1-min intervals). The change in the OD value every minute was used to calculate the reaction rate (ΔA/min). Later, the reaction rate curve, as a function of enzyme concentration, was plotted to compare reaction rates (v) among diverse test compound levels. Associations between diverse enzyme levels were utilized to evaluate the inhibitory effect of the compound on nematode AChE ([Xiong et al., 2016]).

| SMILES | IC50 (C. elegans AChE) | mortality at 500 µg/mL (C. elegans) [%] | mortality at 20 µg/mL (C. elegans; positive control 20 µg/mL) [%] | Ki (dissociation constant of the enzyme-inhibitor complex) (nematode AChE; Dixon plot, substrate 3 and 6 mM) [µg/mL] | type of AChE inhibition (nematode AChE; enzyme-concentration plot, Lineweaver-Burk and Dixon plots) |
| --- | --- | --- | --- | --- | --- |
| C=C(C(=O)O)C1CCC2=CC(O)CC(C)C2(C)C1 (centres unmarked) [Compound 1, laggeranine A] | < 530 µM and 518 µM | 38.8 ± 2.5 |  |  |  |
| C=C(C(=O)O)[C@@H]1CC[C@@]2(C)CCCC(=C)[C@]2(O)C1 [Compound 7, 5α-hydroxycostic acid] | 485 ± 11.5 µM | 50.8 ± 1.91 |  |  |  |
| CCOP(=S)(OCC)Oc1nc(Cl)c(Cl)cc1Cl [Chlorpyrifos, chlorpyrifos, reference compound] | 7.33 ± 0.58 µM |  | 81.7 ± 2.6 |  |  |
| C=C(C(=O)O)[C@@H]1CC[C@@]2(C)CCCC(C)=C2C1 [Compound 4, isocostic acid] | < 530 µM and 528 µM | 30.8 ± 1.91 |  |  |  |
| C=C(C(=O)O)[C@@H]1CC[C@@]2(C)CCC[C@H](C)[C@]2(O)C1 [Compound 6, 5α-hydroxy-4α,15-dihydrocostic acid] | 470 ± 15.6 µM | 48.8 ± 2.5 |  |  |  |
| C=C1CCC[C@]2(C)CC[C@@H](C(=C)C(=O)O)CC12 (some centres unmarked) [Compound 5, costic acid] | 437 ± 8.33 µM | 72.9 ± 3.15 |  | 24.668 | reversible inhibitor; also recorded: mixed-type competitive |
| C=C(C(=O)OCC)[C@@H]1CC[C@@]2(C)CCCC(=C)[C@]2(O)C1 [Compound 2, laggeranine B] | < 710 µM and 701 µM | 31.7 ± 0.72 |  |  |  |
| C=C(C(=O)O)[C@@H]1CC[C@@]2(C)CCC(=O)C(C)=C2C1 [Compound 8, 3-oxo-di-nor-eudesma-4-en-11-oic acid] | < 710 µM and 697 µM | 34.6 ± 1.44 |  |  |  |
| C=C(C(=O)O)[C@H]1C=C2[C@@H](C)CCC[C@]2(C)CC1 [Compound 3, eudesma-5,12-dien-13-oic acid] | 464 ± 10 µM | 60.8 ± 2.6 |  |  |  |
